Measurements from US20180303807A1, “ANDROGEN RECEPTOR LIGANDS” (DUKE UNIVERSITY, priority 2015, published 2018).

How the values were obtained:
Type in all cases: cell-based
AR [1] = assay: Real-time PCR of AR target gene transcription in LNCaP-AR (AR overexpressing) cells, CRPC model; design: key to B5 = Relative antagonist activity (plus 0.1 nM R1881) of test compounds (20 μM) in AR overexpressing LNCaP cells (NKX3.1 AR target gene) / B7 = Relative antagonist activity (plus 0.1 nM R1881) of test compounds (20 μM) in AR overexpressing LNCaP cells (PSA AR target gene): a score of 1 indicates higher antagonist efficacy (highly desired activity) than benchmark compound enzalutamide; a score of 2 indicates equal antagonist efficacy to enzalutamide (desirable); a score of 3 indicates antagonist efficacy between enzalutamide and bicalutamide (less desirable activity); a score of 4 indicates antagonist efficacy equal to bicalutamide (liability); a score of 5 indicates antagonist efficacy worse than bicalutamide (liability); key to B4 = Relative agonist activity (no R1881) of test compounds (20 μM) in AR overexpressing LNCaP cells (NKX3.1 AR target gene) / B6 Relative agonist activity (no R1881) of test compounds (20 μM) in AR overexpressing LNCaP cells (PSA AR target gene): a score of 1 indicates less agonism (highly desired activity) than benchmark compound enzalutamide; a score of 2 indicates equal agonism to enzalutamide (desirable); a score of 3 indicates agonism between enzalutamide and bicalutamide (less desirable activity); a score of 4 indicates equal agonism to bicalutamide (liability); a score of 5 indicates higher agonism than bicalutamide (liability); details: 20 μM, score vs enzalutamide/bicalutamide; for B4 = Relative agonist activity (no R1881) of test compounds (20 μM) in AR overexpressing LNCaP cells (NKX3.1 AR target gene): no R1881, NKX3.1 gene; for B5 = Relative antagonist activity (plus 0.1 nM R1881) of test compounds (20 μM) in AR overexpressing LNCaP cells (NKX3.1 AR target gene): plus 0.1 nM R1881, NKX3.1 gene; for B7 = Relative antagonist activity (plus 0.1 nM R1881) of test compounds (20 μM) in AR overexpressing LNCaP cells (PSA AR target gene): plus 0.1 nM R1881, PSA gene
Protocol: Real-Time PCR (CRPC model of AR overexpressing prostate cancer cells, Table 2, B4-B7). LNCaP-AR (AR overexpressing cells) cells were seeded in 12-well plates in RPMI 1640 (8% charcoal-stripped fetal calf serum (CFS)). […] AR target gene transcription (PSA, NKX3.1, FKBP5) was assessed by realtime PCR.
For B4-B7, scoring system is based on the relative AR target gene agonist/antagonist activity of test compounds when compared to benchmark compounds enzalutamide or bicalutamide. […] The lack of agonist activity is desirable for therapies intended to treat CRPC. For B4 and B6, a score of 1 indicates less agonism (highly desired activity) than benchmark compound enzalutamide, a score of 2 indicates equal agonism to enzalutamide (desirable), a score of 3 indicates agonism between enzalutamide and bicalutamide (less desirable activity), a score of 4 indicates equal agonism to bicalutamide (liability), and a score of 5 indicates higher agonism than bicalutamide (liability). For B5 and B7 a score of 1 indicates higher antagonist efficacy (highly desired activity) than benchmark compound enzalutamide, a score of 2 indicates equal antagonist efficacy to enzalutamide (desirable), a score of 3 indicates antagonist efficacy between enzalutamide and bicalutamide (less desirable activity), a score of 4 indicates antagonist efficacy equal to bicalutamide (liability), and a score of 5 indicates antagonist efficacy worse than bicalutamide (liability) For B9, Compounds that degrade AR (greater than 50% degradation at 10 μM) are indicated.

CV1 cells = assay: Toxicity of test compound in the CV1 reporter gene assay (Renilla-Luc)
AR [2] = biological target: T1, AR (Homo sapiens, UniProt P10275); assay: Reporter gene assay, AR transcriptional (MMTV-Luc) in CV1 cells; details: pcDNA-AR + MMTV-Luc, 0.1 nM R1881 plus test compound, 24 hrs, read-out: B1 = AR transcriptional IC50 (μM) in CV1 cells
T1 construct: expressed in transfected cells; host or cells: CV1 cells
T1 sequence (P10275 1-920): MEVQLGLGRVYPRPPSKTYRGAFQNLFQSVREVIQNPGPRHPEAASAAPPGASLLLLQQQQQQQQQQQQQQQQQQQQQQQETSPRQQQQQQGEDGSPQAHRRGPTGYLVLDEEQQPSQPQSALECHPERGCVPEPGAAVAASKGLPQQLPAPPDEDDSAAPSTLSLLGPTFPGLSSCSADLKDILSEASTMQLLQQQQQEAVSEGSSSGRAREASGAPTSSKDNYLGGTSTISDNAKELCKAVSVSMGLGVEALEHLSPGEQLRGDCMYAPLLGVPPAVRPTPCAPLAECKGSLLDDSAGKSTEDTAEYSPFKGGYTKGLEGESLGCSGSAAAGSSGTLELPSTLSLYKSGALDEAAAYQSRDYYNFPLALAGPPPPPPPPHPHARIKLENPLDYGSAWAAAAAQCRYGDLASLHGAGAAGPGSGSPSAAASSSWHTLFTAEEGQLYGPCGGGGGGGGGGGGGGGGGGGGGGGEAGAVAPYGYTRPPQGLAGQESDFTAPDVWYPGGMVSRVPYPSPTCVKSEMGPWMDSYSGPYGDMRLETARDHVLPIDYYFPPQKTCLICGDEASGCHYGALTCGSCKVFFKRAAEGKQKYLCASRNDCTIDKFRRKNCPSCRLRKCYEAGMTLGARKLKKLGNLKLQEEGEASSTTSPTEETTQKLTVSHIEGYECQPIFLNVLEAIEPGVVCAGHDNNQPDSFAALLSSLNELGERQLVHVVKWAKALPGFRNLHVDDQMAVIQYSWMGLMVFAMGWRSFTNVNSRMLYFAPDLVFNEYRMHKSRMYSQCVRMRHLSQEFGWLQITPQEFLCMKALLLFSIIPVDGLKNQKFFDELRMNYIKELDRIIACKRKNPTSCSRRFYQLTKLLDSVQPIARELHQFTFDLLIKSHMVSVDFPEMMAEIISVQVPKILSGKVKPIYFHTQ
Procedure, shortened: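 CV1 cells transiently co-transfected with human AR, MMTV-Luc reporter and Renilla-Luc (transfection efficiency and toxicity read-out), then stimulated 24 h with 0.1 nM R1881 plus increasing test compound concentrations. Firefly and Renilla luciferase quantified by dual-luciferase assay; IC50 derived from concentration-response.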

Compound | B4 = Relative agonist activity (no R1881) of test compounds (20 μM) in AR overexpressing LNCaP cells (NKX3.1 AR target gene) (AR [1]) | B6 Relative agonist activity (no R1881) of test compounds (20 μM) in AR overexpressing LNCaP cells (PSA AR target gene) (AR [1]) | B5 = Relative antagonist activity (plus 0.1 nM R1881) of test compounds (20 μM) in AR overexpressing LNCaP cells (NKX3.1 AR target gene) (AR [1]) | B7 = Relative antagonist activity (plus 0.1 nM R1881) of test compounds (20 μM) in AR overexpressing LNCaP cells (PSA AR target gene) (AR [1]) | B2 = % Toxicity of test compound (20 μM) (CV1 cells) [%] | B3 = % Toxicity of test compound (60 μM) (CV1 cells) [%] | IC50 (AR [2]) [µM]
CC1(C)CC(=O)C2=C(C1)Nc1ccc3ccccc3c1C2c1ccc(C#N)cc1 (stereo not shown) [Compound A3] | 1 | 1 | 1 | 1 | 0 | 24 | 1.6
CC1(C)CC(=O)C2=C(C1)Nc1ccc3ccccc3c1C2c1cccc(C(F)(F)F)c1 (stereo not shown) [Compound A9] | 1 | 1 | 1 | 1 | 0 | 0 | 5.5
Cn1c(=O)n(C)c2cc(C3C4=C(CC(C)(C)CC4=O)Nc4ccc5ccccc5c43)ccc21 (stereo not shown) [Compound A8] | 2 | 1 | 1 | 1 | 0 | 0 | 5.3
CC1(C)CC(=O)C2=C(C1)Nc1ccc3ccccc3c1C2c1ccncc1 (stereo not shown) [Compound A12] | 1 | 1 | 2 | 3 | 0 | 94 | 8.6
CC1(C)CC(=O)C2=C(C1)Nc1ccc3ncccc3c1C2c1ccc([N+](=O)[O-])cc1 (stereo not shown) [Compound A2, 9,9-dimethyl-12-(4-nitrophenyl)-8,9,10,12-tetrahydrobenzo[b][4,7]phenanthrolin-11(7H)-one] |  |  |  | 1 | 0 | 51 | 0.2
O=C1CCCC2=C1C(c1ccc([N+](=O)[O-])cc1)c1c(ccc3ncccc13)N2 (stereo not shown) [Compound A18] |  | 1 |  | 2 | 0 | 22 | > 10
